Measurements as given in ChEMBL document CHEMBL1201862, “PubChem BioAssay data set” (2004).
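48-hour exposure; five concentrations; linearly interpolated endpoints. GI50 = concentration required for 50% inhibition of growth.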 Active and inactive are the calls of the source. Cut-off read from the data, not from the text of the source: active = GI50 up to about 1.1 µM and inactive = higher.

What was measured:
Assay in all cases: DTP human tumour cell line panel, 48 h
MDA-N = test system: MDA-N
MDA-MB-435 = test system: MDA-MB-435
OVCAR-8 = test system: OVCAR-8
786-0 = test system: 786-0
EKVX = test system: EKVX
CCRF-CEM = test system: CCRF-CEM
K562 = test system: K562
CAKI-1 = test system: CAKI-1
COLO 205 = test system: COLO 205
ACHN = test system: ACHN
SR = test system: SR
UO-31 = test system: UO-31
RXF 393 = test system: RXF 393
U-251 = test system: U-251
SW-620 = test system: SW-620
OVCAR-4 = test system: OVCAR-4
IGROV-1 = test system: IGROV-1
MDA-MB-231 = test system: MDA-MB-231

Compound | GI50 (MDA-N) | GI50 (MDA-MB-435) | GI50 (OVCAR-8) | GI50 (786-0) | GI50 (EKVX) | GI50 (CCRF-CEM) | GI50 (K562) | GI50 (CAKI-1) | GI50 (COLO 205) | GI50 (ACHN) | GI50 (SR) | GI50 (UO-31) | GI50 (RXF 393) | GI50 (U-251) | GI50 (SW-620) | GI50 (OVCAR-4) | GI50 (IGROV-1) | GI50 (MDA-MB-231)
CC(=O)Oc1ccccc1C(=O)O [ASPIRIN] | > 100 µM (inactive) | > 100 µM (inactive) | > 100 µM (inactive) | > 100 µM (inactive) | > 100 µM (inactive) | > 100 µM (inactive) | > 100 µM (inactive) | > 100 µM (inactive) | > 100 µM (inactive) | > 100 µM (inactive) | > 100 µM (inactive) | > 100 µM (inactive) | > 100 µM (inactive) | > 100 µM (inactive) | > 100 µM (inactive) | > 100 µM (inactive) | – | –
CCOC(=O)/C(=C\NC(C)(C)C)c1nc2ccccc2[nH]1 | 22.9 µM (inactive) | 20 µM (inactive) | 26.1 µM (inactive) | 27.1 µM (inactive) | 12.2 µM (inactive) | 17.7 µM (inactive) | – | 29.2 µM (inactive) | 16 µM (inactive) | 20.4 µM (inactive) | 12.7 µM (inactive) | 0.466 µM (active) | 23.5 µM (inactive) | – | 25.3 µM (inactive) | 24.5 µM (inactive) | 22 µM (inactive) | –
COC(=O)C1=C(C)NC2(C)OC(C)(O)C(C(C)=O)C12C(C)=O (configuration not stated) | > 100 µM (inactive) | > 100 µM (inactive) | > 100 µM (inactive) | > 100 µM (inactive) | > 100 µM (inactive) | 31.6 µM (inactive) | > 100 µM (inactive) | > 100 µM (inactive) | 46.8 µM (inactive) | 70.6 µM (inactive) | – | – | 57.7 µM (inactive) | 43.7 µM (inactive) | > 100 µM (inactive) | > 100 µM (inactive) | > 100 µM (inactive) | 20.7 µM (inactive)
O=C1CNC(=O)/C(=C/c2c[nH]c3ccccc23)N1 | > 100 µM (inactive) | > 100 µM (inactive) | > 100 µM (inactive) | > 100 µM (inactive) | > 100 µM (inactive) | – | > 100 µM (inactive) | > 100 µM (inactive) | – | > 100 µM (inactive) | – | > 100 µM (inactive) | > 100 µM (inactive) | – | > 100 µM (inactive) | > 100 µM (inactive) | > 100 µM (inactive) | –
c1cc2c(cc1NC1=NCCO1)CCC2 | 3.24 µM (inactive) | 8.04 µM (inactive) | > 10 µM (inactive) | > 10 µM (inactive) | > 10 µM (inactive) | > 10 µM (inactive) | 9.75 µM (inactive) | – | > 10 µM (inactive) | – | > 10 µM (inactive) | – | > 10 µM (inactive) | – | 8.26 µM (inactive) | > 10 µM (inactive) | > 10 µM (inactive) | –
COc1ccccc1NC(=O)O/N=C(/Cl)C(C)C | 13.6 µM (inactive) | – | 15 µM (inactive) | 11.9 µM (inactive) | 16.1 µM (inactive) | 0.977 µM (active) | 2.24 µM (inactive) | – | 2.4 µM (inactive) | 5.92 µM (inactive) | 1.91 µM (inactive) | 18.8 µM (inactive) | 14.9 µM (inactive) | 16.7 µM (inactive) | 1.82 µM (inactive) | – | 16.7 µM (inactive) | 7.19 µM (inactive)
Cc1ccc(O)c(C(c2cc(C)ccc2O)c2cc([N+](=O)[O-])ccc2O)c1 | – | 15 µM (inactive) | 3.66 µM (inactive) | 16.1 µM (inactive) | 15.2 µM (inactive) | 13.6 µM (inactive) | 23.1 µM (inactive) | 12.2 µM (inactive) | 17.8 µM (inactive) | 13.2 µM (inactive) | 8.43 µM (inactive) | 7.74 µM (inactive) | 17.8 µM (inactive) | 15.7 µM (inactive) | 24.3 µM (inactive) | 11.8 µM (inactive) | 10.3 µM (inactive) | 0.0604 µM (active)
CC(=O)O[C@H]1[C@@H](OC2CCCC2(c2ccccc2)c2ccccc2)O[N+]([O-])=C[C@@]12COCc1cc3c(cc12)OCO3 (some centres not stated) | – | 3.66 µM (inactive) | 4.24 µM (inactive) | 6.58 µM (inactive) | 3.02 µM (inactive) | 2.83 µM (inactive) | 2.92 µM (inactive) | 4.32 µM (inactive) | > 32.4 µM (inactive) | 7.85 µM (inactive) | 2.32 µM (inactive) | 4.42 µM (inactive) | 5.74 µM (inactive) | 7.48 µM (inactive) | 7.03 µM (inactive) | 1.49 µM (inactive) | 3.54 µM (inactive) | 6.12 µM (inactive)
CN1[C@@H]2CCCC[C@H]2N(C)P1(=O)C(O)/C=C/c1ccccc1 (some centres not stated) | > 100 µM (inactive) | > 100 µM (inactive) | > 100 µM (inactive) | > 100 µM (inactive) | > 100 µM (inactive) | > 100 µM (inactive) | > 100 µM (inactive) | > 100 µM (inactive) | > 100 µM (inactive) | > 100 µM (inactive) | – | > 100 µM (inactive) | > 100 µM (inactive) | > 100 µM (inactive) | > 100 µM (inactive) | > 100 µM (inactive) | > 100 µM (inactive) | > 100 µM (inactive)
Fc1ccc2c3c([nH]c2c1)CCNC3 | – | 77.1 µM (inactive) | > 100 µM (inactive) | > 100 µM (inactive) | > 100 µM (inactive) | > 100 µM (inactive) | > 100 µM (inactive) | – | > 100 µM (inactive) | 65.3 µM (inactive) | > 100 µM (inactive) | 31.8 µM (inactive) | > 100 µM (inactive) | > 100 µM (inactive) | > 100 µM (inactive) | > 100 µM (inactive) | > 100 µM (inactive) | > 100 µM (inactive)
COc1ccc(CNc2nc(NC3CCCCC3)nc(NC3CCCCC3)n2)cc1 | – | 21.8 µM (inactive) | 15.4 µM (inactive) | 5.71 µM (inactive) | 4.78 µM (inactive) | 4.63 µM (inactive) | 5.08 µM (inactive) | 5.14 µM (inactive) | 3.62 µM (inactive) | 5.35 µM (inactive) | – | 3.57 µM (inactive) | 3.09 µM (inactive) | 4.06 µM (inactive) | 4.19 µM (inactive) | 4.02 µM (inactive) | 4.76 µM (inactive) | 3.44 µM (inactive)
CC(=O)OCC12C(OC(C)=O)C[C@@H](C)C3(CC(c4ccoc4)OC3=O)C1CCC(OC(C)=O)C21CO1 (some centres not stated) | > 100 µM (inactive) | > 100 µM (inactive) | > 100 µM (inactive) | > 100 µM (inactive) | > 100 µM (inactive) | > 100 µM (inactive) | > 100 µM (inactive) | > 100 µM (inactive) | > 100 µM (inactive) | > 100 µM (inactive) | – | > 100 µM (inactive) | > 100 µM (inactive) | > 100 µM (inactive) | > 100 µM (inactive) | > 100 µM (inactive) | > 100 µM (inactive) | > 100 µM (inactive)
O=C(c1ccccc1)N1CCC(Nc2nccs2)O1 (configuration not stated) | – | > 10 µM (inactive) | > 10 µM (inactive) | > 10 µM (inactive) | > 10 µM (inactive) | > 10 µM (inactive) | > 10 µM (inactive) | > 10 µM (inactive) | > 10 µM (inactive) | > 10 µM (inactive) | > 10 µM (inactive) | > 10 µM (inactive) | > 10 µM (inactive) | – | > 10 µM (inactive) | > 10 µM (inactive) | > 10 µM (inactive) | > 10 µM (inactive)
COc1ccc(C2C3=C(COC3=O)Oc3cc4c(cc32)OCO4)cc1OC (configuration not stated) | 0.135 µM (active) | 0.123 µM (active) | 4.05 µM (inactive) | 1.04 µM (active) | 3.61 µM (inactive) | 0.428 µM (active) | 0.337 µM (active) | 2.82 µM (inactive) | 0.879 µM (active) | 1.82 µM (inactive) | – | 3.73 µM (inactive) | 0.891 µM (active) | 0.785 µM (active) | 0.492 µM (active) | 37.9 µM (inactive) | 0.713 µM (active) | 3.4 µM (inactive)
COc1cccc(/C=N/NC(=O)CSCC(=O)N/N=C/c2cccc(OC)c2OC)c1OC | – | > 100 µM (inactive) | > 100 µM (inactive) | > 100 µM (inactive) | > 100 µM (inactive) | – | > 100 µM (inactive) | > 100 µM (inactive) | > 100 µM (inactive) | > 100 µM (inactive) | > 100 µM (inactive) | > 100 µM (inactive) | > 100 µM (inactive) | > 100 µM (inactive) | > 100 µM (inactive) | > 100 µM (inactive) | > 100 µM (inactive) | > 100 µM (inactive)
COC(=O)CN1C(=O)C2(C(=O)OC)OC1(c1ccc([N+](=O)[O-])cc1)C1C(=O)N(c3ccccc3)C(=O)C12 (configuration not stated) | > 100 µM (inactive) | > 100 µM (inactive) | > 100 µM (inactive) | > 100 µM (inactive) | > 100 µM (inactive) | > 100 µM (inactive) | – | > 100 µM (inactive) | > 100 µM (inactive) | > 100 µM (inactive) | – | > 100 µM (inactive) | > 100 µM (inactive) | > 100 µM (inactive) | > 100 µM (inactive) | > 100 µM (inactive) | > 100 µM (inactive) | > 100 µM (inactive)
COc1ccc(N2/C(=N/c3ccccc3)SC(=N/S(=O)(=O)c3ccccc3)/C2=N\S(=O)(=O)c2ccccc2)cc1 | – | – | 18.2 µM (inactive) | 24.9 µM (inactive) | 22.6 µM (inactive) | 20 µM (inactive) | 16.9 µM (inactive) | – | 16.4 µM (inactive) | 23.3 µM (inactive) | 16.8 µM (inactive) | 19.2 µM (inactive) | 12.8 µM (inactive) | 16.7 µM (inactive) | 34.8 µM (inactive) | – | 13 µM (inactive) | 14.3 µM (inactive)
